Experimental data reported in patent US12448368B2, “Indole compounds as androgen receptor modulators” (NIDO BIOSCIENCES, INC., priority 2020, dated 2025).
Read-outs that look alike come from different tables or passages of the source.

Molecular target: T1, androgen receptor (AR) (Homo sapiens, UniProt P10275, T878A)
T1 construct: LNCaP cells expressing ARR2PB-FireflyLuc and CMV-RenillaLuc; endogenous in cells; host or cells: LNCaP cells carrying ARR2PB-FireflyLuc and CMV-RenillaLuc reporters
T1 sequence (P10275 1-920 T878A): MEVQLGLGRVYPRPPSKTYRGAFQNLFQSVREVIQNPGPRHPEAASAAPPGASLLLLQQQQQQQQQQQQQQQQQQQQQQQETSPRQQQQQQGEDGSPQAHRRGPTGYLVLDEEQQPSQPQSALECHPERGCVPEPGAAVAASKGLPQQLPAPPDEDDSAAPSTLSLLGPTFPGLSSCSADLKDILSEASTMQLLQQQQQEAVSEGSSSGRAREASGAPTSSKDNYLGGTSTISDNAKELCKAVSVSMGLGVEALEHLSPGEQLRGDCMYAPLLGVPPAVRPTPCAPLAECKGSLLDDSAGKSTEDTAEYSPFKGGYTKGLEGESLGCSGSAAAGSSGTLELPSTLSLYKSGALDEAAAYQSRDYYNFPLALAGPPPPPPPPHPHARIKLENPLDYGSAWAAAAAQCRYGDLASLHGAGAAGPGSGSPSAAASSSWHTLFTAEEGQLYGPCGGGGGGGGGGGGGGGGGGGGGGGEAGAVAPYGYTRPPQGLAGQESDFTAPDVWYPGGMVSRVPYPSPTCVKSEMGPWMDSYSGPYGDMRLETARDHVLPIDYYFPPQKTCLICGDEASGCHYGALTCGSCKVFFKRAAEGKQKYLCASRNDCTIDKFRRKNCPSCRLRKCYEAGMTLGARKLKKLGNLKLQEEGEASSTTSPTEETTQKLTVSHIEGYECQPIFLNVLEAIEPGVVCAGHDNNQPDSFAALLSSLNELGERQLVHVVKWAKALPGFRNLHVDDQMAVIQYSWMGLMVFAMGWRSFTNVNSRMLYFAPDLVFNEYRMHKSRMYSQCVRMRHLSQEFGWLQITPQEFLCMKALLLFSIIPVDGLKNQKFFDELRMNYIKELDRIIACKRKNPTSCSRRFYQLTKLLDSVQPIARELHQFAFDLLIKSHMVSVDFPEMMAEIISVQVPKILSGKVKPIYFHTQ
Test: AR reporter assay in LNCaP cells expressing ARR2PB-FireflyLuc and CMV-RenillaLuc, antagonist mode (% remaining activity, IC50)
Format: cell-based
Conditions: 48 h at 37° C., class symbols A-D
Description: LNCaP cells expressing ARR2PB-FireflyLuc and CMV-RenillaLuc were treated with indicated concentrations of test compounds, enzalutamide (negative control), or DHT (positive control)+/−0.5 nM DHT for 48 h at 37° C. […] Remaining activity (antagonist mode) was calculated as % Remaining Activity=100×[(Readsample−LCave)/(HCave−LCave)] where HC is cells treated with 0.5 nM DHT only and LC is cells treated with 10 uM enzalutamide+0.5 nM DHT. Activation (agonist mode) was calculated as % Activation=100×[(ReadSample−LCave)/(HCave−LCave)] where HC is cells treated with 1 uM DHT and LC is cells treated with DMSO. Dose response curves and IC50 values were calculated using non-linear regression analysis in XLfit.
The designation “A” indicates an IC50 value of >10 μM, “B” indicates an IC50 value between 1 μM and 10 μM; “C” indicates an IC50 value between 100 nM and 1 μM; and “D” indicates an IC50 value of less than 100 nM.

Row | SMILES | IC50 (read-out: IC50) [µM] | IC50 (IC50 (μM)) [µM]
1 | CC1(C)CCNc2ccc(-c3n[nH]c4ccc(F)cc34)nc21 [Compound 78] | 0.1 to 1 | 
2 | CCOC(=O)c1coc(-c2n[nH]c3c(C)cccc23)n1 [Compound 79] | > 10 | 
3 | Cc1cc(-c2n[nH]c3cc(F)c(F)cc23)nc2c1NC(=O)CC2 [Compound 80] | 1 to 10 | 
4 | c1ccc(-c2cc(-c3ccc4c(n3)CCCN4)n[nH]2)cc1 [Compound 81] | > 10 | 
5 | Cc1[nH]nc(-c2ccc3c(n2)CCCN3)c1C [Compound 82] | > 10 | 
6 | c1cc2c(nc1-c1n[nH]c3c1COCC3)CCCN2 [Compound 83] | > 10 | 
7 | c1ccc(-c2cc(-c3ccc4c(n3)CCCN4)n[nH]2)nc1 [Compound 84] | > 10 | 
8 | N#Cc1cccc2c(-c3ccc4ncccc4n3)nn(C3CCCCO3)c12 (centres unmarked) [Compound 85] | > 10 | 
9 | NCc1cccc2c(-c3ccc4ncccc4n3)n[nH]c12 [Compound 86] | 0.1 to 1 | 
10 | CC(C)NCc1cccc2c(-c3ccc4ncccc4n3)n[nH]c12 [Compound 87] | 1 to 10 | 
11 | CC(C)c1nc(-c2n[nH]c3cc(F)c(F)cc23)ccc1N [Compound 88] | 1 to 10 | 
12 | CC(C)Oc1nc(-c2n[nH]c3cc(F)c(F)cc23)ccc1N [Compound 89] | 1 to 10 | 
13 | CCOc1nc(-c2n[nH]c3cc(F)c(F)cc23)ccc1N [Compound 90] | 1 to 10 | 
14 | COc1nc(-c2n[nH]c3cc(F)c(F)cc23)ccc1N [Compound 91] | 0.1 to 1 | 
15 | Nc1ccc(-c2n[nH]c3cc(F)c(F)cc23)nc1C(F)(F)F [Compound 92] | 0.1 to 1 | 
16 | Nc1ccc(-c2n[nH]c3cc(F)c(F)cc23)nc1Cl [Compound 93] | 0.1 to 1 | 
17 | CNc1ccc(-c2n[nH]c3cc(F)c(F)cc23)nc1C [Compound 94] | 1 to 10 | 
18 | CCNc1ccc(-c2n[nH]c3cc(F)c(F)cc23)nc1C [Compound 95] | 1 to 10 | 
19 | CC(=O)Nc1ccc(-c2n[nH]c3cc(F)c(F)cc23)nc1C [Compound 96] | > 10 | 
20 | CC(=O)N(C)c1ccc(-c2n[nH]c3cc(F)c(F)cc23)nc1C [Compound 97] | > 10 | 
21 | Cc1nc(-c2n[nH]c3cc(F)c(F)cc23)ccc1N(C)C [Compound 98] | 1 to 10 | 
22 | COc1ccc(-c2n[nH]c3cc(F)c(F)cc23)nc1C [Compound 99] | 0.1 to 1 | 
23 | CNC(=O)c1ccc(-c2n[nH]c3cc(F)c(F)cc23)nc1C [Compound 100] | > 10 | 
24 | Cc1nc(-c2n[nH]c3cc(F)c(F)cc23)ccc1C(N)=O [Compound 101] | > 10 | 
25 | Cc1nc(-c2n[nH]c3cc(F)c(F)cc23)ccc1C(=O)N(C)C [Compound 102] | > 10 | 
26 | Cc1nc(-c2n[nH]c3cc(F)c(F)cc23)ccc1C#N [Compound 103] | < 0.1 | 

Row | SMILES | IC50 (read-out: IC50) [µM] | IC50 (IC50 (μM)) [µM]
27 | CC1c2nc(-c3n[nH]c4cc(F)c(F)cc34)ccc2C(=O)N1C (centres unmarked) [Compound 104] | 0.1 to 1 | 
28 | CC1NC(=O)c2ccc(-c3nn(C)c4cc(F)c(F)cc34)nc21 (centres unmarked) [Compound 105] | > 10 | 
29 | COc1ccc(CN2C(=O)c3ccc(-n4ncc5cc(F)c(F)cc54)nc3C2C)cc1 (centres unmarked) [Compound 106] | > 10 | 
30 | CC1NC(=O)c2ccc(-n3ncc4cc(F)c(F)cc43)nc21 (centres unmarked) [Compound 107] | > 10 | 
31 | CC1NC(=O)c2ccc(-n3cnc4cc(F)c(F)cc43)nc21 (centres unmarked) [Compound 108] | > 10 | 
32 | CC1NC(=O)c2ccc(-c3n[nH]c4ccccc34)cc21 (centres unmarked) [Compound 109] | 0.1 to 1 | 
33 | CC1(C)NC(=O)c2ccc(-c3n[nH]c4cc(F)c(F)cc34)cc21 [Compound 110] | > 10 | 
34 | Fc1ccc(-c2n[nH]c3cc(F)ccc23)nc1 [Compound 111] | 0.1 to 1 | 
35 | Fc1ccc(-c2n[nH]c3cccnc23)nc1 [Compound 112] | > 10 | 
36 | Fc1ccc(-c2n[nH]c3ncccc23)cc1 [Compound 113] | 1 to 10 | 
37 | O=C1NCc2nc(-c3n[nH]c4ccccc34)ccc21 [Compound 114] | 1 to 10 | 
38 | O=S1(=O)CCNc2ccc(-c3n[nH]c4cc(F)c(F)cc34)nc21 [Compound 115] | > 10 | 
39 | Fc1ccc(-c2n[nH]c3ncccc23)nc1 [Compound 116] | 1 to 10 | 
40 | c1ccc2nc(-c3n[nH]c4ccccc34)ccc2c1 [Compound 117] |  | 0.1 to 1
41 | FC(F)(F)c1ccc(-c2c[nH]c3ccccc23)nc1 [Compound 118] | 0.1 to 1 | 
42 | Fc1ccc(-c2c[nH]c3ccccc23)nc1 [Compound 119] | 0.1 to 1 | 
43 | N#Cc1cccc2c(-c3ccc4ccc(F)cc4n3)c[nH]c12 [Compound 120] | < 0.1 | 
44 | N#Cc1cccc2c(-c3ccc4c(n3)CCCN4)c[nH]c12 [Compound 121] | < 0.1 | 
45 | CC1(C)NC(=O)c2ccc(-c3c[nH]c4cc(F)c(F)cc34)nc21 [Compound 122] | 0.1 to 1 | 
46 | CCOC(=O)c1coc(-c2c[nH]c3c(C)cccc23)n1 [Compound 123] | > 10 | 
47 | Cc1nc(-c2c[nH]c3cc(F)c(F)cc23)ccc1N [Compound 124] | 1 to 10 | 
48 | Cc1nc(-c2c[nH]c3c(C#N)cccc23)ccc1N [Compound 125] | 0.1 to 1 | 
49 | Fc1ccc(-c2c[nH]c3ncccc23)nc1 [Compound 126] | 0.1 to 1 | 
50 | N#Cc1cccc2c(-c3ccc(F)cn3)c[nH]c12 [Compound 127] | < 0.1 | 
51 | c1cnc2[nH]cc(-c3ccc(C4CC4)cn3)c2c1 [Compound 128] | 0.1 to 1 | 
52 | c1cnc2[nH]cc(-c3ccc(C4COC4)cn3)c2c1 [Compound 129] | 1 to 10 | 

Row | SMILES | IC50 (read-out: IC50) [µM] | IC50 (IC50 (μM)) [µM]
53 | Cc1nc(-c2c[nH]c3c(C#N)cc(F)cc23)ccc1N [Compound 130] | 0.1 to 1 | 
54 | Cc1nc(-c2c[nH]c3c(C#N)cc(F)cc23)ccc1F [Compound 131] | < 0.1 | 
55 | N#Cc1cccc2c(-c3ccc(N)cn3)c[nH]c12 [Compound 132] | 1 to 10 | 
56 | Cc1cccc(-c2c[nH]c3c(C#N)cccc23)n1 [Compound 133] | 0.1 to 1 | 
57 | Cc1nc(-c2c[nH]c3cccnc23)ccc1N [Compound 134] | > 10 | 
58 | Cc1nc(-c2c[nH]c3ncccc23)ccc1N [Compound 135] | 1 to 10 | 
59 | CC1NC(=O)c2ccc(-c3c[nH]c4cc(F)c(F)cc34)nc21 (centres unmarked) [Compound 136] | 0.1 to 1 | 
60 | N#Cc1cccc2c(-c3ccc(N)c(Cl)n3)c[nH]c12 [Compound 137] | 0.1 to 1 | 
61 | Cc1cc(-c2c[nH]c3c(C#N)cccc23)ncc1N [Compound 138] | 1 to 10 | 
62 | N#Cc1cccc2c(-c3ccc(N)c(C4CC4)n3)c[nH]c12 [Compound 139] | < 0.1 | 
63 | Cc1nc(-c2c[nH]c3c(C)cccc23)ccc1N [Compound 140] | 1 to 10 | 
64 | Cc1nc(-c2c[nH]c3c(F)cccc23)ccc1N [Compound 141] | 1 to 10 | 
65 | Cc1nc(-c2c[nH]c3c(C4CC4)cccc23)ccc1N [Compound 142] | 1 to 10 | 
66 | CC1(C)NC(=O)c2ccc(-c3c[nH]c4cc(F)c(F)cc34)cc21 [Compound 143] | 1 to 10 | 
67 | Cc1nc(-c2c[nH]c3c(-c4nnco4)cccc23)ccc1N [Compound 144] | > 10 | 
68 | CNC(=O)c1cccc2c(-c3ccc(N)c(C)n3)c[nH]c12 [Compound 145] | > 10 | 
69 | CNc1ccc(-c2c[nH]c3c(C#N)cccc23)nc1C [Compound 146] | < 0.1 | 
70 | CCNc1ccc(-c2c[nH]c3c(C#N)cccc23)nc1C [Compound 147] | 0.1 to 1 | 
71 | Cc1nc(-c2c[nH]c3c(C#N)cccc23)ccc1N(C)C [Compound 148] | < 0.1 | 
72 | Cc1nc(-c2c[nH]c3c(C#N)cccc23)cnc1N [Compound 149] | 0.1 to 1 | 
73 | Cc1ccc2c(-c3ccc(N)c(C)n3)c[nH]c2c1C#N [Compound 150] | 1 to 10 | 
74 | Cc1nc(-c2c[nH]c3c(C#N)c(Cl)ccc23)ccc1N [Compound 151] | 0.1 to 1 | 
75 | Cc1cc(C#N)c2[nH]cc(-c3ccc(N)c(C)n3)c2c1 [Compound 152] | 1 to 10 | 
76 | Cc1nc(-c2c[nH]c3c(C#N)cc(Cl)cc23)ccc1N [Compound 153] | 1 to 10 | 
77 | NCc1cc(F)cc2c(-c3ccc4ncccc4n3)c[nH]c12 [Compound 154] | 0.1 to 1 | 
